Laboratory results: US20240252519A1, “METHODS FOR THE TREATMENT OF POST-TRAUMATIC STRESS DISORDER AND TRAUMATIC BRAIN INJURY WITH CANNABINOIDS” (ANANDA SCIENTIFIC, INC., priority 2021, published 2024)

What was measured:
[1] = doses ranging from 10 mg to 6000 mg, single and multiple doses; cited from earlier work
[2] = Chemical characteristics of composition A′, concentrated and diluted forms; format: physicochemical
Method: Several tests were conducted to determine the chemical characteristics of composition A′, both in concentrated and diluted forms. […] All liquid nanodomain droplets range in size from 5 to 20 nm. The pH of both the concentrate and diluted formulations is between 6.0 and 7.5.

CB2 receptors = CB2 receptors (Homo sapiens, UniProt P34972); details: cited from earlier work
Sequence of CB2 receptors (P34972 whole entry): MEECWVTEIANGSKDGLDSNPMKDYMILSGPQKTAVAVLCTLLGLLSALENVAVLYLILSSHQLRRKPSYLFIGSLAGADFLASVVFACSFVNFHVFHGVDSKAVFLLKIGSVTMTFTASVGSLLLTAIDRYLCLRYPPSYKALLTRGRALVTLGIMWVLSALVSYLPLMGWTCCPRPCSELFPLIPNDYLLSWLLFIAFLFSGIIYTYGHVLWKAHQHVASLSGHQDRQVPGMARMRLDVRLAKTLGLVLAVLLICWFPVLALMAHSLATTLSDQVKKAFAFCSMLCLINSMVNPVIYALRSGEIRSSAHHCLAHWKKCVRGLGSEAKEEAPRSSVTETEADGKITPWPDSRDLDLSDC

[3] = rats, cited from earlier work

Q: With `C=C(C)[C@@H]1CCC(C)=C[C@H]1c1c(O)cc(CCCCC)cc1O` [CBD, 2-(1R,6R)-3-methyl-6-prop-1-en-2-ylcyclohex-2-en-1-yl-5-pentylbenzene-1,3-diol] as the molecule, how does the Safety [1] read?
A: safe

Q: And the logP [2]?
A: ~6

Q: What about the “Affinity for CB2 receptors” value (CB2 receptors) of the same molecule?
A: low affinity

Q: What about the T1/2 ([3]; 120 mg/kg dose, oral) of the same molecule?
A: 4 to 5 h

Q: What about the “Bioavailability of CBD delivered orally” value ([3]; single 10 mg/kg) of the same molecule?
A: 2.8%
